Where two headings read alike, the source gives them in different places.
Target: T1, human mAChR M1 (Homo sapiens, UniProt P11229)
T1 sequence (P11229 1-460): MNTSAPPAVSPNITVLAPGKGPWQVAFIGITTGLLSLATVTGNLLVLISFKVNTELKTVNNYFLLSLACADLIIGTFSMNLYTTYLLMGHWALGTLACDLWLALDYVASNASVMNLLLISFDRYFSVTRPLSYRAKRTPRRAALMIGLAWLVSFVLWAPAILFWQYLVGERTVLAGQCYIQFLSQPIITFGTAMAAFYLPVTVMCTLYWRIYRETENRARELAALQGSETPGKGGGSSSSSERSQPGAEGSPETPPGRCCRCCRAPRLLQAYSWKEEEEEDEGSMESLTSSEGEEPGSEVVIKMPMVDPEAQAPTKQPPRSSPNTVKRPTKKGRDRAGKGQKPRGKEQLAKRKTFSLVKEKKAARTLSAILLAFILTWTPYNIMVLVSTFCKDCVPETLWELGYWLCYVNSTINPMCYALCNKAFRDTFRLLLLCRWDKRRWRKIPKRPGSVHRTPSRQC
Assay: mAChR M1 cell-based functional assay: calcium mobilization, positive allosteric modulator mode (increase in EC20 acetylcholine response)
Settings: for Emax: read-out: Human M1 Emax (%)
Summary of the method: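 Calcium-flux assay in CHO-K1 cells stably expressing human M1, loaded with Fluo-4 AM (50 min, 37 °C) and read at 1 Hz. Compound (11-point, 1:3 series) was added at 4 s, EC20 acetylcholine at 144 s and EC80 at 230 s. PAM activity is the concentration-dependent rise in the EC20 response, fitted with a four-parameter logistic.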

[1] = Table 2, human M1, read-out: Human M1 EC50
[2] = Table 1, mAChR M1 cell-based functional assay, PAM mode, species not given, read-out: EC50

Compound `Cc1nc(-c2ccc(Cc3cc(C(=O)NC4CC(C)OC(C)C4)nc4ccsc34)cc2)co1` (centres unmarked) [Compound 299, N-(2,6-dimethyltetrahydropyran-4-yl)-7-[[4-(2-methyloxazol-4-yl)phenyl]methyl]thieno[3,2-b]pyridine-5-carboxamide] has an EC50 [1] of 702 nM and an Emax (Table 2, human M1) of 75%.

`Cc1csc2c(Cc3ccc(-n4cccn4)cc3)cc(C(=O)N[C@@H]3CCC[C@H]3O)nc12` [Compound 114, N-[(1R,2R)-2-hydroxycyclopentyl]-3-methyl-7-[(4-pyrazol-1-ylphenyl)methyl]thieno[3,2-b]pyridine-5-carboxamide] gave an EC50 [1] of 562 nM and an Emax (Table 2, human M1) of 84.5%.

With `COC1CC(NC(=O)c2cc(Cc3ccc(-c4cn(C)nc4C)cc3)c3sccc3n2)C1` (centres unmarked) [Compound 246, 7-[[4-(1,3-dimethylpyrazol-4-yl)phenyl]methyl]-N-(3-methoxycyclobutyl)thieno[3,2-b]pyridine-5-carboxamide] the EC50 [1] was > 10000 nM and the Emax (Table 2, human M1) was 16%.

For `Cc1csc2c(Cc3ccc(-n4cccn4)cc3)cc(C(=O)NC3CCCCNC3=O)nc12` (centres unmarked) [Compound 123, 3-methyl-N-(2-oxoazepan-3-yl)-7-[(4-pyrazol-1-ylphenyl)methyl]thieno[3,2-b]pyridine-5-carboxamide], the EC50 [1] was 435 nM and the Emax (Table 2, human M1) was 28.8%.

For `Cc1csc2c(Cc3ccc(-n4cccn4)cc3)cc(C(=O)NCC3CCOC3)nc12` (centres unmarked) [Compound 321, 3-methyl-7-[(4-pyrazol-1-ylphenyl)methyl]-N-(tetrahydrofuran-3-ylmethyl)thieno[3,2-b]pyridine-5-carboxamide], the EC50 [1] was 805 nM and the Emax (Table 2, human M1) was 79.2%.

In the case of `Cn1cc(-c2ccc(Cc3cc(C(=O)N[C@H]4CCOC[C@@H]4O)nc4ccn(C)c34)cn2)cn1` [Compound 468, N-[(3R,4S)-3-hydroxytetrahydropyran-4-yl]-1-methyl-7-[[6-(1-methylpyrazol-4-yl)-3-pyridyl]methyl]pyrrolo[3,2-b]pyridine-5-carboxamide], the EC50 [1] is reported as 11.8 nM and the Emax (Table 2, human M1) is reported as 70%.

For `O=C(N[C@@H]1CCOC1)c1cc(Cc2ccc(-n3cccn3)cc2)c2sccc2n1` [Compound 277, 7-[(4-pyrazol-1-ylphenyl)methyl]-N-[(3R)-tetrahydrofuran-3-yl]thieno[3,2-b]pyridine-5-carboxamide], the EC50 [1] was 627 nM and the Emax (Table 2, human M1) was 67.9%.

`Cc1ccc([C@H](F)c2cc(C(=O)N[C@H]3CCCC[C@@H]3O)nc3ccsc23)cn1` [Compound 233] was tested, and the EC50 [1] was 161 nM and the Emax (Table 2, human M1) was 67.8%.

With `Cc1ccc(Cc2cc(C(=O)NC3CCCNC3=O)nc3c(C)csc23)cn1` (centres unmarked) [Compound 110, 3-methyl-7-[(6-methyl-3-pyridyl)methyl]-N-(2-oxo-3-piperidyl)thieno[3,2-b]pyridine-5-carboxamide] the EC50 [1] was 5060 nM and the Emax (Table 2, human M1) was 71%.

With `Cn1ncc2nc(C(=O)N[C@H]3CCC[C@@H]3O)cc(Cc3ccc(-n4cccn4)cc3)c21` [Compound 497, N-[(1S,2S)-2-hydroxycyelopentyl]-1-methyl-7-[(4-pyrazol-1-ylphenyl)methyl]pyrazolo-[4,3-b]pyridine-5-carboxamide] the EC50 [1] was 1180 nM and the Emax (Table 2, human M1) was 68.1%.

In the case of `Cn1cc(-c2ccc(Cc3cc(C(=O)NC4COC4)nc4ccsc34)cn2)cn1` [Compound 341, 7-[[6-(1-methylpyrazol-4-yl)-3-pyridyl]methyl]-N-(oxetan-3-yl)thieno[3,2-b]pyridine-5-carboxamide], the EC50 [1] is reported as 1690 nM and the Emax (Table 2, human M1) is reported as 78.8%.

`CO[C@@H]1CCCC[C@H]1NC(=O)c1cc(Cc2ccc(C(F)(F)F)nc2)c2sccc2n1` [Compound 93, N-[(1R,2R)-2-methoxycyclohexyl]-7-[[6-(trifluoromethyl)-3-pyridyl]methyl]thieno[3,2-b]pyridine-5-carboxamide] gave an EC50 [1] of 6720 nM and an Emax (Table 2, human M1) of 70.3%.

`Cn1cc(-c2ccc(Oc3cc(C(=O)N[C@H]4CCC[C@@H]4O)nc4ccsc34)c(F)c2)cn1` [Compound 6] was tested, and the EC50 [2] was > 10000 nM.

`Cn1cc(-c2cc(F)c(Cc3cc(C(=O)N[C@H]4CCCCC[C@@H]4O)nc4ccsc34)c(F)c2)cn1` [Compound 61, 7-[[2,6-difluoro-4-(1-methylpyrazol-4-yl)phenyl]methyl]-N-[(1S,2S)-2-hydroxycycloheptyl]thieno[3,2-b]pyridine-5-carboxamide] was tested, and the EC50 [1] was > 10000 nM and the Emax (Table 2, human M1) was 64.8%.

With `Cn1ncc2nc(C(=O)N[C@H]3CCOC[C@@H]3O)cc(Cc3ccc(-n4cccn4)cc3)c21` [Compound 499, N-[(3R,4S)-3-hydroxytetrahydropyran-4-yl]-1-methyl-7-[(4-pyrazol-1-ylphenyl)methyl]-pyrazolo[4,3-b]pyridine-5-carboxamide] the EC50 [1] was 267 nM and the Emax (Table 2, human M1) was 65.3%.

`O=C(NC1CC(F)(F)C1)c1ccc(Cc2cc(C(=O)NC3CC(F)(F)C3)nc3ccsc23)cc1` [Compound 408, N-(3,3-difluorocyclobutyl)-7-[[4-[(3,3-difluorocyclobutyl)carbamoyl]phenyl]methyl]thieno[3,2-b]pyridine-5-carboxamide] was tested, and the EC50 [1] was 397 nM and the Emax (Table 2, human M1) was 45%.

In the case of `CC1CC(NC(=O)c2cc(Cc3ccc(-c4cncs4)cc3)c3sccc3n2)CC(C)O1` (centres unmarked) [Compound 391, N-(2,6-dimethyltetrahydropyran-4-yl)-7-[(4-thiazol-5-ylphenyl)methyl]thieno[3,2-b]pyridine-5-carboxamide], the EC50 [1] is reported as 1800 nM and the Emax (Table 2, human M1) is reported as 73.4%.

`O=C(NC1CCOCC1)c1cc(Cc2ccc(-c3nccs3)cc2)c2sccc2n1` [Compound 296] was tested, and the EC50 [1] was 273 nM and the Emax (Table 2, human M1) was 79.9%.

With `O=C(N[C@@H]1CCOC1)c1cc(Cc2ccc(-c3nccs3)cc2)c2sccc2n1` [Compound 368] the EC50 [1] was 2300 nM and the Emax (Table 2, human M1) was 65.6%.

`O=C(NC1CC2(COC2)C1)c1cc(Cc2ccc(-c3nccs3)cc2)c2sccc2n1` [Compound 333] gave an EC50 [1] of 446 nM and an Emax (Table 2, human M1) of 84.7%.

With `Cc1nn(C)cc1-c1ccc(Cc2cc(C(=O)NC3CN(C(C)(C)C)C3)nc3ccsc23)cc1` [Compound 245, N-(1-tert-butylazetidin-3-yl)-7-[[4-(1,3-dimethylpyrazol-4-yl)phenyl]methyl]thieno[3,2-b]pyridine-5-carboxamide] the EC50 [1] was > 10000 nM and the Emax (Table 2, human M1) was 16.2%.

Compound `Cn1ccc(-c2ccc(Cc3cc(C(=O)NC4CCOCC4)nc4ccn(C)c34)cn2)n1` [Compound 503, 1-methyl-7-[[6-(1-methylpyrazol-3-yl)-3-pyridyl]methyl]-N-tetrahydropyran-4-yl-pyrrolop,2-blpyridine-5-carboxamide;] has an EC50 [1] of 1560 nM and an Emax (Table 2, human M1) of 66.6%.

In the case of `O=C(NC[C@@H]1CCCO1)c1cc(Cc2ccc(-n3cccn3)cc2)c2sccc2n1` [Compound 286, 7-[(4-pyrazol-1-ylphenyl)methyl]-N-[[(2S)-tetrahydrofuran-2-yl]methyl]thieno[3,2-b]pyridine-5-carboxamide], the EC50 [1] is reported as 203 nM and the Emax (Table 2, human M1) is reported as 69.3%.

With `O=C(N[C@H]1CCCOC1)c1cc(Cc2ccc(-c3cscn3)cc2)c2sccc2n1` [Compound 213, N-([3S)-tetrahydropyran-3-yl]-7-[(4-thiazol-4-ylphenyl)methyl]thieno[3.2-b]pyridine-5-carboxamide] the EC50 [1] was 1120 nM and the Emax (Table 2, human M1) was 61.2%.

For `Cc1ccc(Oc2cc(C(=O)N[C@H]3CCCCC[C@@H]3O)nc3ccsc23)cn1` [Compound 25, N-[(1S,2S)-2-hydroxycycloheptyl]-7-[(6-methyl-3-pyridyl)oxy]thieno[3,2-b]pyridine-5-carboxamide], the EC50 [2] was 750 nM.

For `Cn1cc(-c2ccc(Cc3cc(C(=O)N[C@H]4CCC[C@@H]4O)nc4ccsc34)cn2)cn1` [Compound 223, N-[(1S,2S)-2-hydroxycyclopentyl]-7-[[6-(1-methylpyrazol-4-yl)-3-pyridyl]methyl]thieno[3,2-b]pyridine-5-carboxamide], the EC50 [1] was 29.4 nM and the Emax (Table 2, human M1) was 79.9%.

With `O=C(N[C@H]1CCC[C@@H]1O)c1cc(Cc2ccc(-c3cncs3)cc2)c2sccc2n1` [Compound 397, N-[(1S,2S)-2-hydroxycyclopentyl]-7-[(4-thiazol-5-ylphenyl)methyl]thieno[3,2-b]pyridine-5-carboxamide] the EC50 [1] was 111 nM and the Emax (Table 2, human M1) was 59.6%.

Compound `Cc1ccc(Cc2cc(C(=O)N[C@H]3CCOC[C@@H]3O)nc3ccsc23)cn1` [Compound 45, N-[(3R,4S)-3-hydroxytetrahydropyran-4-yl]-7-[(6-methyl-3-pyridyl)methyl]thieno[3,2-b]pyridine-5-carboxamide] has an EC50 [2] of 80 nM.

Work on `Cc1nc(-c2ccc(Cc3cc(C(=O)NC4CCCN(C)C4)nc4ccsc34)cc2)cs1` (centres unmarked) [Compound 186, N-(1-methyl-3-piperidyl)-7-[[4-(2-methylthiazol-4-yl)phenyl]methyl]thieno[3,2-b]pyridine-5-carboxamide] yielded an EC50 [1] of 3290 nM and an Emax (Table 2, human M1) of 74.2%.

With `Cc1nc(-c2ccc(Cc3cc(C(=O)NC4CCCCNC4=O)nc4ccsc34)cc2)co1` (centres unmarked) [Compound 172, 7-[[4-(2-methyloxazol-4-yl)phenyl]methyl]-N-(2-oxoazepan-3-yl)thieno[3,2-b]pyridine-5-carboxamide] the EC50 [1] was 685 nM and the Emax (Table 2, human M1) was 88.8%.

`O=C(N[C@@H]1COCC[C@H]1O)c1cc(Cc2ccc(-n3cccn3)cc2)c2sccc2n1` [Compound 75, N-[(3R,4R)-4-hydroxytetrahydropyran-3-yl]-7-[(4-pyrazol-1-ylphenyl)methyl]thieno[3,2-b]pyridine-5-carboxamide] gave an EC50 [1] of 22.1 nM and an Emax (Table 2, human M1) of 90.1%.

Reference: patent US11111251B2, “Positive allosteric modulators of the muscarinic acetylcholine receptor M1” (Vanderbilt University, priority 2016, dated 2021)
